From article PMC4435632, “Phase 1 study of ixazomib, an investigational proteasome inhibitor, in advanced non-hematologic malignancies” (Investigational New Drugs, 2015)

Assays:
[1] = test system: patients with advanced non-hematologic malignancies; assay: Dose-limiting toxicities in cycle 1 and determination of MTD; type: in vivo
Protocol: The dose-escalation cohort comprised patients with any non-hematologic malignancy. The four MTD expansion cohorts were limited to patients with non-small cell lung cancer (NSCLC), head and neck cancer (squamous cell cancer), soft tissue sarcoma, and prostate cancer, respectively. In addition, the TPEC was open to patients with non-hematologic malignancy that could be safely biopsied. Dose escalation initially proceeded from a starting dose of 0.125 mg/m^2 of body surface area, with one patient per dose level and dose doubling up to a dose of 1.0 mg/m^2. Dose doubling was permitted until one of the following occurred: one patient experienced a dose-limiting toxicity (DLT) during cycle 1; any two patients experienced a drug-related adverse event (AE) of grade ≥2 during cycle 1; or the dose level of 1 mg/m^2 had been evaluated. Dose escalation then proceeded in 33 % increments following a standard 3 + 3 schema based on the occurrence of DLTs in cycle 1. […]
The safety population included all patients who received ≥1 dose of ixazomib, and the DLT-evaluable population, which was used for determination of the MTD, comprised patients who received all cycle 1 doses of ixazomib or experienced a DLT in cycle 1. […] Approximately 16 response-evaluable patients were planned to be evaluated in each MTD expansion cohort.

ATF-3 = ATF-3 IHC staining in pre- and post-dose tumor biopsies; type: in vivo, human; details: TPEC, 1.76 mg/m^2; seven evaluable tumor pairs
Protocol: This open-label, non-randomized, dose-escalation phase 1 study was conducted at 7 sites in the United States and Canada, with patients enrolled from March 02, 2009 to January 10, 2012. The primary objective of the trial was to determine the safety profile, establish the maximum tolerated dose (MTD), and inform the recommended phase 2 dose of IV ixazomib in patients with non-hematologic malignancies. Secondary objectives were to characterize the pharmacokinetics and pharmacodynamics of IV ixazomib in blood and to evaluate disease response. Drug distribution and target engagement in post-dose tumor samples was measured by determining the increase in ATF-3 levels in post-dose tumor samples compared with pre-dose samples by immunohistochemistry (IHC).
Tumor biopsies were analyzed for the presence of ixazomib using a quantified LC/MS/MS methodology validated in xenograft models. Expression of ATF-3 was measured in the TPEC using an IHC staining assay developed and validated using preclinical and human primary tumor samples. For this assay, formalin-fixed, paraffin-embedded tumor biopsy samples were obtained pre- and post-treatment (at 4–24 h post-dosing on day 1 or day 4 of cycle 1). […] After staining, whole slides were scanned and analyzed to calculate the percentage ATF-3-positive area for each section using the Genie™ (Aperio® ePathology Solutions) pattern recognition tool. […]

[2] = target: chymotrypsin-like activity of the β5 subunit of the 20S proteasome (Homo sapiens, UniProt P28074); assay: Whole blood 20S proteasome activity, fluorogenic assay; type: in vivo
Protocol: Blood samples for determination of plasma ixazomib concentrations for pharmacokinetic analysis (3 mL) and for measurement of whole blood 20S proteasome activity (1 mL) were collected at the following timepoints for all patients in the dose-escalation cohort and for the first 12 patients completing cycle 1 while receiving protocol-specified treatment at the MTD: pre-dose (within 1 h) on days 1, 4, 8, and 11 of cycle 1, and on day 1 of cycle 2; and on days 1 and 11, cycle 1, at 5, 15 and 30 min, and 1, 2, 4, 9, 24, 48, 96 (day 11 only), 120 (day 11 only), and 168 (day 11 only) h post-dose. A limited sampling schedule was employed for the remaining patients in the MTD expansion cohorts.
Plasma concentrations of ixazomib were measured using a good laboratory practice-validated liquid chromatography/tandem mass spectrometry (LC/MS/MS) assay with a lower limit of quantification of 0.5 ng/mL. Whole blood 20S proteasome activity (expressed as percent proteasome inhibition relative to baseline) was measured using an established fluorogenic assay, which evaluates the chymotrypsin-like activity of the β5 subunit of the 20S proteasome, the primary target of ixazomib. […]
All efficacy and safety data were summarized using descriptive statistics. Pharmacokinetic and pharmacodynamic parameters were calculated using noncompartmental methods (WinNonlin software v5.3).

CC(C)C[C@H](NC(=O)CNC(=O)c1cc(Cl)ccc1Cl)B(O)O [ixazomib]
MTD (maximum tolerated dose) ([1]; IV on days 1, 4, 8, and 11 of a 21-day cycle): 1.76 mg/m^2
Patients who experienced DLTs ([1]; in vivo): Five
Paired tumor samples with statistically significant increase in post-dose ATF-3 levels (p <0.05) (ATF-3): Six of the seven
Time to Emax, whole blood 20S proteasome ([2]; day 1, 0.125 mg/m^2 IV, n = 1): 1.0 h
Emax, whole blood 20S proteasome ([2]; day 1, 0.125 mg/m^2 IV, n = 1, individual value): 7.7 % inhibition
Time to Emax, whole blood 20S proteasome ([2]; day 1, 0.25 mg/m^2 IV, n = 1): 0.10 h
Emax, whole blood 20S proteasome ([2]; day 1, 0.25 mg/m^2 IV, n = 1, individual value): 17.9 % inhibition
Time to Emax, whole blood 20S proteasome ([2]; day 1, 0.5 mg/m^2 IV, n = 1): 0.25 h
Emax, whole blood 20S proteasome ([2]; day 1, 0.5 mg/m^2 IV, n = 1, individual value): 28.2 % inhibition
Emax, whole blood 20S proteasome ([2]; day 1, 1 mg/m^2 IV, n = 7, mean (± SD)): 36.9 (±19.4) % inhibition
Time to Emax, whole blood 20S proteasome ([2]; day 1, 1 mg/m^2 IV, n = 7, median (range)): 0.10 (0.08–0.10) h
Emax, whole blood 20S proteasome ([2]; day 1, 1.33 mg/m^2 IV, n = 4, mean (± SD)): 46.7 (±9.4) % inhibition
Time to Emax, whole blood 20S proteasome ([2]; day 1, 1.33 mg/m^2 IV, n = 4, median (range)): 0.25 (0.1–0.25) h
Emax, whole blood 20S proteasome ([2]; day 1, 1.76 mg/m^2 IV, n = 19, mean (± SD)): 61.3 (±7.9) % inhibition
Time to Emax, whole blood 20S proteasome ([2]; day 1, 1.76 mg/m^2 IV, n = 19, median (range)): 0.10 (0.067–0.267) h
Emax, whole blood 20S proteasome ([2]; day 1, 2.34 mg/m^2 IV, n = 3, mean (± SD)): 64.4 (±3.4) % inhibition
Time to Emax, whole blood 20S proteasome ([2]; day 11, 0.125 mg/m^2 IV, n = 1): 24.0 h
Emax, whole blood 20S proteasome ([2]; day 11, 0.125 mg/m^2 IV, n = 1, individual value): 4.5 % inhibition
Time to Emax, whole blood 20S proteasome ([2]; day 11, 0.25 mg/m^2 IV, n = 1): 0.083 h
Emax, whole blood 20S proteasome ([2]; day 11, 0.25 mg/m^2 IV, n = 1, individual value): 10.0 % inhibition
Time to Emax, whole blood 20S proteasome ([2]; day 11, 0.5 mg/m^2 IV, n = 1): 0.1 h
Emax, whole blood 20S proteasome ([2]; day 11, 0.5 mg/m^2 IV, n = 1, individual value): 46.1 % inhibition
Emax, whole blood 20S proteasome ([2]; day 11, 1 mg/m^2 IV, n = 6, mean (± SD)): 38.9 (±8.35) % inhibition
Time to Emax, whole blood 20S proteasome ([2]; day 11, 1 mg/m^2 IV, n = 6, median (range)): 0.1 (0.0–0.117) h
Emax, whole blood 20S proteasome ([2]; day 11, 1.33 mg/m^2 IV, n = 3, mean (± SD)): 54.3 (±4.1) % inhibition
Time to Emax, whole blood 20S proteasome ([2]; day 11, 1.33 mg/m^2 IV, n = 3, median (range)): 0.083 (0.083–0.1) h
Emax, whole blood 20S proteasome ([2]; day 11, 1.76 mg/m^2 IV, n = 15, mean (± SD)): 62.5 (±7.71) % inhibition
Time to Emax, whole blood 20S proteasome ([2]; day 11, 1.76 mg/m^2 IV, n = 15, median (range)): 0.10 (0.083–0.283) h
Emax, whole blood 20S proteasome ([2]; day 11, 2.34 mg/m^2 IV, n = 3, mean (± SD)): 72.5 (±4.71) % inhibition
Time to Emax, whole blood 20S proteasome ([2]; day 11, 2.34 mg/m^2 IV, n = 3, median (range)): 0.10 (0.083-0.133) h
inhibition at 1.76 mg/m2 ([2]; read-out: Average maximal inhibition of 20S proteasome activity in whole blood): 60%
Recovery of 20S proteasome activity to predose levels ([2]; single-dose administration on day 1, except dose level greater than the MTD): ≤ 24 h
